The source of these data is patent EP4785945A1, “THERAPEUTIC AGENT FOR RHEUMATOID ARTHRITIS” (Teijin Pharma Limited, priority 2023, dated 2025).

Data set [1] deals with rheumatoid arthritis patients. The data set can be described thus: Clinical trial on rheumatoid arthritis patients: efficacy (ACR20, DAS28-CRP, VAS scale pain score, TJC). The class given is in vivo, humans. Here is the method: (§1) Compound 1 was orally administered at dosages of 10, 25, 75, or 175 mg once daily for seven days (double-blind study) to 32 rheumatoid arthritis patients (six patients for each dosage of Compound 1 administration, and two patients for each dosage of placebo administration).
(§2) Endpoints included: items related to disease activity and pain (DAS28-CRP, ACR20, VAS scale pain score, and TJC) to represent efficacy; vital signs (blood pressure, pulse, body temperature, and respiratory rate), physical findings, electrocardiograms, hematological tests, blood biochemistry tests, and the severity and frequency of adverse events to represent safety; and changes in the plasma concentration of Compound 1 to represent pharmacokinetics (PK).
DAS28-CRP was used to determine whether there was improvement or no improvement based on the differences between the values on Day 1 and Day 7 of administration, in accordance with the criteria shown in Table 1 (EULAR criteria).
ACR20 was used to determine whether there was an improvement based on the ACR20 on Day 1 and Day 7 of administration.
The percentage change in the VAS scale pain score is the percentage change in the score on Day 7 compared to the score on Day 1.
The percentage change in the TJC score is the percentage change in the value on Day 7 compared to the value on Day 1.

In data set [2] the test system is rheumatoid arthritis patients. The data set can be described thus: Clinical trial on rheumatoid arthritis patients: safety. The class given is in vivo, humans. Here is the method: as §1, §2
A short description of data set [3]: Clinical trial on rheumatoid arthritis patients: pharmacokinetics (plasma concentration). Type of data set: in vivo, humans. Particulars: human, Day 7 after administration. Here is the method: as §1, §2
The subject of data set [4] is synovial cells. Put plainly: Proliferation of synovial cells stimulated with TNF-α and IL-1β. Type of data set: cell-based. The note with it: Synovial cell, relative to baseline after TNF-α and IL-1β stimulation without Compound 1, read-out: suppression of proliferation of synovial cells. As for the experimental part:
(§3) The synovial cells used in the test were derived from rheumatoid arthritis patients. The synovial cells were stimulated with tumor necrosis factor-α (TNF-α) and interleukin-1β (IL-1β) at the time of the test, and the effect of Compound 1 was measured. […] Furthermore, with regard to matrix metalloproteinase-3 (MMP-3), which is a mediator involved in tissue destruction, relative to a baseline after TNF-α and IL-1β stimulation without any added Compound 1, Compound 1 suppressed secretion in a dosage-dependent manner, by 14% when 10 nM was added, 21% when 30 nM was added, 37% when 100 nM was added, 60% when 300 nM was added, and 63% when 1000 nM was added.

The test system of data set [5] is granulocyte macrophage colony-stimulating factor (GM-CSF). The data set can be described thus: GM-CSF secretion by synovial cells stimulated with TNF-α and IL-1β. Type of data set: cell-based. The note with it: relative to baseline after TNF-α and IL-1β stimulation without Compound 1, read-out: suppression of GM-CSF secretion. As for the experimental part: as §3
Data set [6] concerns matrix metalloproteinase-3 (MMP-3). Put plainly: MMP-3 secretion by synovial cells stimulated with TNF-α and IL-1β. The class given is cell-based. Particulars: Synovial cell, relative to baseline after TNF-α and IL-1β stimulation without Compound 1, read-out: suppression of MMP-3 secretion. Here is the method:
as §3

Data set [7] has as its system synovial cells and bone marrow cells. Type of data set: in vitro ADME. Here is the method:
Cultured synovial cells and bone marrow cells were used. Compound 1 was added, and the intracellular concentration in the synovial cells and bone marrow cells and the concentration in the culture medium were measured.

Data set [8] relates to rat adjuvant-induced arthritis (AIA) model. The data set can be described thus: Combination study with methotrexate, Arthritis Score. Type of data set: in vivo. Here is the method: The effect of combining Compound 1 with methotrexate was measured using a rat adjuvant-induced arthritis (AIA) model. The effect was evaluated using the Arthritis Score. […] Compared to the control, the scores decreased by 33% when only Compound 1 was used, by 59% when only methotrexate was used, and by 86% when Compound 1 and methotrexate were used in combination. On the other hand, in this study, there was no decrease in the number of bone marrow cells even when Compound 1 and methotrexate were used in combination.

Data set [9] relates to mouse anti-collagen antibody-induced arthritis (CAIA) model. Put plainly: Combination study with etanercept, Arthritis Score. The note with it: Compound 1 alone, 50 mg/kg/day. The class given is in vivo. As for the experimental part:
The effect of combining Compound 1 with etanercept was measured using a mouse anti-collagen antibody-induced arthritis (CAIA) model. The effect was evaluated using the Arthritis Score. […] Compared to the control, the scores decreased by 64% when only Compound 1 was used, by 62% when only etanercept was used, and by 97% when Compound 1 and etanercept were used in combination.

Data set [10] concerns rat AIA model. The data set can be described thus: Combination study with tofacitinib, Arthritis Score. The class given is in vivo. The note with it: 30 mg/kg/day. Here is the method: The effect of combining compound 1 with tofacitinib was measured using a rat AIA model. The effect was evaluated using the Arthritis Score.
The conditions of data set [11]: package insert; cited from earlier work.
[12] abbreviates: 25 mg, 75 mg, and 175 mg administration groups, Day 7 compared to Day 1.
[13] abbreviates: 75 mg administration group, Day 7 compared to Day 1.
[14] abbreviates: Day 1 to Day 7 of administration and three-day follow-up (up to Day 10).
Where [15] appears, read: all administration groups (10 to 175 mg).

As usually defined, the half-life is the time needed for the level to fall by half in the phase considered. A lower half-life goes with rapid decline. For the molecule `CC(C)Nc1nc([C@@H](C)O)cc2cnc(Nc3ccc(N4CCNCC4=O)cn3)nc12` [Compound 1, (R)-1-(6-((6-(1-hydroxyethyl)-8-(isopropylamino)pyrido[3,4-d]pyrimidin-2-yl)amino)pyridin-3-yl)piperazin-2-one], the “percentages of subjects who showed improvement in ACR20, compared with placebo group” value in [1] (25 mg, 75 mg, and 175 mg administration groups, once daily oral, seven days) is reported as “higher than in the placebo group”. The “percentages of subjects who showed improvement in DAS28-CRP, compared with placebo group” value in data set [1] (25 mg, 75 mg, and 175 mg administration groups, once daily oral, seven days, EULAR criteria) is given as “higher than in the placebo group”. Besides, in data set [1] (setting [12]), the “decreases in the TJC scores, compared with placebo group” value is reported as “higher than in the placebo group”. For the same molecule, the “decreases in the VAS scale pain scores, compared with placebo group” value in data set [1] (setting [12]) is recorded as “higher than in the placebo group”. Moreover, the “percentage of subjects who showed improvement in ACR20” value in data set [1] (75 mg administration group, once daily oral, seven days) is given as 60%. Also, in [1] (75 mg administration group, once daily oral, seven days, EULAR criteria), the “percentage of subjects who showed improvement in DAS28-CRP” value stood at 80%. Moreover, the “percentage change in the TJC score” value in data set [1] (setting [13]) is given as -40%. Moreover, in data set [1] (setting [13]), the “percentage change in the VAS scale pain score” value is reported as -40%. The “adverse events, cases (events)” value in [2] (10 mg administration group) is “two cases (five events)”; in data set [2] (25 mg administration group) it was “two cases (three events)”; in [2] (75 mg administration group) it was “two cases (three events)”; in data set [2] (175 mg administration group) it was “one case (one event)”. Moreover, the “neutropenia or decrease in neutrophil count” value in [2] (setting [14]) is given as “no neutropenia or decrease in neutrophil count”. Moreover, the neutrophil count entry in data set [2] (setting [14]) is on record as “maintained a constant neutrophil count”. In addition, the severe adverse events entry in data set [2] (setting [15]) is reported as “no severe adverse events”. Besides, the “severity of adverse events” value in data set [2] (setting [15]) was “mild to moderate”. Moreover, the “changes in vital signs, electrocardiograms, physical findings, hematological tests, or blood biochemistry tests” value in data set [2] (any dosage (10, 25, 75, 175 mg once daily, seven days)) is “No significant changes”. In addition, the half-life at 168 h in [3] (10 mg once daily oral) was 12.9 h; in data set [3] (25 mg once daily oral), 11.9 h; in data set [3] (75 mg once daily oral), 14.6 h; in data set [3] (175 mg once daily oral) it was 10.4 h. In addition, the results for the inhibition at 0.01 µM in [4] (10 nM) and in data set [6] (10 nM) were 5% and 14%, respectively. In addition, the figures for the inhibition at 0.03 µM in data set [4] (30 nM) and in data set [6] (30 nM) were 14% and 21%, respectively. The inhibition at 0.1 µM was 19% in data set [4] (100 nM) and 37% in data set [6] (100 nM). Further, the figures for the inhibition at 0.3 µM in [4] (300 nM) and in [6] (300 nM) were 27% and 60%, respectively. The inhibition at 1 µM in data set [4] (1000 nM) came to 35%; in [5] (1000 nM), 65%; in data set [6] (1000 nM) it was 63%. In addition, the inhibition at 0.008 µM in data set [5] (8 nM) came out at 17%. The inhibition at 0.04 µM in [5] (40 nM) was 25%. Also, in data set [5] (200 nM), the inhibition at 0.2 µM was 48%. The “distribution ratio between synovial cells and bone marrow cells” value in data set [7] is 84:16. Also, the “decrease of Arthritis Score compared to the control” value (“decrease of Arthritis Score” below) in data set [8] (Compound 1 alone, 30 mg/kg/day) is reported as 33%; in data set [9] it was 64%; in [10] (Compound 1 alone) it was 40%.

Consider `CCN1CCN(Cc2ccc(Nc3ncc(F)c(-c4cc(F)c5nc(C)n(C(C)C)c5c4)n3)nc2)CC1` [abemaciclib], for which the “incidence of the side effect of neutropenia” value in [11] is listed as 42.2%.

Regarding `CN(Cc1cnc2nc(N)nc(N)c2n1)c1ccc(C(=O)N[C@@H](CCC(=O)O)C(=O)O)cc1` [methotrexate, reference compound], the “decrease of Arthritis Score” value in data set [8] (methotrexate alone, 0.075 mg/kg/day) worked out at 59%.

As to `C[C@@H]1CCN(C(=O)CC#N)C[C@@H]1N(C)c1ncnc2[nH]ccc12` [tofacitinib, reference compound], the “decrease of Arthritis Score” value in data set [10] (tofacitinib alone) was determined as 67%.
